Results published in patent EP0369035A1, “AGENT FOR TREATING PANCREATITIS OR THE LIKE” (priority 1988, dated 1989).
pIC50: −log10 of the molar value.

What was measured:
[1] = in vivo; conditions: mouse, intravenous, ICR male mice, up-and-down method, read-out: Acute toxicity (LD50)
Procedure: ICR male mice 5 to 10 weeks old were used. The test substance was dissolved in a 5% dimethylsulfoxide aqueous solution, and the solution was intravenously administered in an amount of 0.1 to 0.2 ml/10 g body weight. An LD50 value was calculated by up-and-down method.

[2] = molecular target: T1, bovine factor Xa (Bos taurus, UniProt P00743); experiment: Anti-FXa activity: inhibition of S-2222 degradation; assay type: biochemical; conditions: Table 3-2, existing control drugs; substrate printed as S-2238; read-out: FXa S-2238 (I50)
T1 construct: 0.05 ml of 0.3 vial/ml bovine factor Xa
T1 sequence (P00743 234-492 limits assumed): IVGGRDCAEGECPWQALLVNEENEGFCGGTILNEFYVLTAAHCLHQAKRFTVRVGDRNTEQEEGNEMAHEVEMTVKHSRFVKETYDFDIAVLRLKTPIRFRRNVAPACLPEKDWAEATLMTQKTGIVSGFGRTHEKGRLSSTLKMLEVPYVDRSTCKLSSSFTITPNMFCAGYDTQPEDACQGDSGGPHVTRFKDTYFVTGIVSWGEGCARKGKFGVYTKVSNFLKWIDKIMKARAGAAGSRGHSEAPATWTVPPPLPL
T1 sequence (P00743 41-180 partner limits assumed): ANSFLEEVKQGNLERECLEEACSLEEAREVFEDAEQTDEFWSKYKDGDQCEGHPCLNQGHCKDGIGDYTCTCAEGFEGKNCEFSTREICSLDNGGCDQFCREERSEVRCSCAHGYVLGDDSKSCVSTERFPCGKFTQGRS

[3] = molecular target: T2, human plasma kallikrein (Homo sapiens, UniProt P03952); experiment: Anti-plasma kallikrein activity: inhibition of S-2302 degradation; assay type: biochemical; conditions: substrate S-2302, 37°C, pH 7.8; read-out: Plasma kallikrein S-2302 (I50)
T2 construct: 50 µl of 0.12 units/ml human plasma kallikrein solution
T2 sequence (P03952 391-638 limits assumed): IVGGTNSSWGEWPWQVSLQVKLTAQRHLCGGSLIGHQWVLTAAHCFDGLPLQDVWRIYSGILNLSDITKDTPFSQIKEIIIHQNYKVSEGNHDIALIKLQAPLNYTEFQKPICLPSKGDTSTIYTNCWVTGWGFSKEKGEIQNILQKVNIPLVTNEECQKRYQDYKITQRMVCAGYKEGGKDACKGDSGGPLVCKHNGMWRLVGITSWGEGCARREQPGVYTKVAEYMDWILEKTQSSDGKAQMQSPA
T2 sequence (P03952 20-390 partner limits assumed): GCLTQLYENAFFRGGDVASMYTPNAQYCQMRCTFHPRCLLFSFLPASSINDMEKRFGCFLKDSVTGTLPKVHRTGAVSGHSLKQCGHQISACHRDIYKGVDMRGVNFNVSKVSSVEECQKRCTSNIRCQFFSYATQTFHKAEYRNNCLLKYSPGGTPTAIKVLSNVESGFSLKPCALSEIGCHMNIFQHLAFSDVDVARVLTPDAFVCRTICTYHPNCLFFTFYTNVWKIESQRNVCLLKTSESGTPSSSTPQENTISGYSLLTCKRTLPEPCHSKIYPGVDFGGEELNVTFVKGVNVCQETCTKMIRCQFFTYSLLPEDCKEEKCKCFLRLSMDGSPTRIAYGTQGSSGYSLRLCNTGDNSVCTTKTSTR
Procedure: 2) Assay of anti-plasma kallikrein activity Assay method of inhibition of S-2302 degradation
(§1) The test substance was dissolved in a 0.05 M Tris-HC1 (pH 7.8) buffer to make a total volume of 400 µl, and 50 µl of a 2 mM S-2302 solution was added to the solution. After incubation at 37°C for 5 minutes in an incubator, an addition of 50 µl of 0.12 units/ml human plasma kallikrein solution, and incubation at 37°C for 5 minutes, the reaction was terminated by an addition of 50 µl of 50% acetic acid.

[4] = Measurement of half life in blood; assay type: in vivo; conditions: rat, iv; administered to the tail vein, SD-rats, plasma, HPLC
Procedure: [VI] Measurement of half life in blood
SD-rats 6 to 7 weeks old were used. The test substance was dissolved in an injective 5% glucose solution and administered to the tail vein. After the administration, blood samples were periodically obtained from the great vein and placed into heparinized test tubes. Plasma was separated by centrifugation and the test substance was extracted with ethyl acetate. After removal of the solvent, the residue was dissolved in 200 µl of methanol, and analyzed by high performance liquid chromatography. From the change of the concentration of the test substance in blood with time, a half life thereof in blood was calculated.

[5] = molecular target: human urokinase (Homo sapiens, UniProt P00749); experiment: Anti-urokinase activity: inhibition of S-2444 degradation; assay type: biochemical; conditions: substrate S-2444, 37°C, pH 8.8; read-out: Urokinase S-2444 (I50)
Procedure: 3) Assay of anti-urokinase activity Assay method of inhibition of S-2444 degradation
as §1, with “8.8)” for “7.8)”, “1” for “2”, “S-2444” for “S-2302”, “mixture.” for “solution.”, “500” for “0.12”, “urokinase” for “plasma kallikrein”

[6] = test system: experimental pancreatitis; experiment: Effect on experimental pancreatitis (sodium taurochorate + trypsin into the common bile duct), survival ratio; assay type: in vivo, SD-rats; design: Effect on experimental pancreatitis (100 mg/kg p.o.) After 24 hours / Effect on experimental pancreatitis (100 mg/kg p.o.) After 48 hours / Effect of existing control drug on experimental pancreatitis After 24 hours: unit not given here; conditions: survival ratio, 50 μg/kg/min x 80 min, rat
Description: [II] Effect on experimental pancreatitis
SD-rats, body weight of about 200 g were, starved overnight, and 10 to 24 animals were used in one group. Sodium pentobarbital was intraperioneally administered to anesthetize each rat, and then a cannula was inserted to the femoral vein for the administration of the test substance. After abdominal surgery, the bile duct was blocked at a part thereof proximate to the liver, by a clip, a polyethylene tube was inserted to the common bile duct at a part thereof most proximate to the duodenum, and 0.1 ml of solution containing 2 mg sodium taurochorate and 1000 U trypsin dissolved in physiological saline was injected retrogrodely. After removal of the clip and tube, the common bile duct was ligated and the abdomen was closed. Note, the test substance was dissolved in an injective 5% glucose solution, and in the case of a continuous infusion, the solution was administered over 80 minutes starting from 10 minutes before the generation of pancreatitis. In the case of oral administration, the test substance was administered through an oral catheter 30 minutes before the generation of pancreatitis. After 24 hours and 48 hours from the generation of pancreatitis, the survival ratio of the animals was calculated and compared with a control group.

N=C(N)c1ccc2cc(OC(=O)c3ccc(N=C(N)N)cc3)ccc2c1 [FUT-175, nafamostat mesilate, reference compound]
LD50 [1]: 24 mg/kg | pIC50 [2]: 5.24 | pIC50 [3]: 7.10 | half-life [4]: 2 to 3 min | pIC50 [5]: 8.00 | Effect of existing control drug on experimental pancreatitis After 24 hours [6]: 33.3
